These molecules were tested against Gal-3 (Homo sapiens, UniProt P17931) (assay: Fluorescence anisotropy assay, inhibition of galectin / fluorescein tagged saccharide probe interaction).
Assay type: binding
Experimental: The affinity of Example 1-59 for galectins were determined by a fluorescence anisotropy assay where the compound was used as an inhibitor of the interaction between galectin and a fluorescein tagged saccharide probe as described Sörme, P., Kahl-Knutsson, B., Huflejt, M., Nilsson, U. J., and Leffler H. (2004) Fluorescence polarization as an analytical tool to evaluate galectin-ligand interactions. Anal. Biochem. 334: 36-47, (Sarme et al., 2004)

Gal-3, sequence (P17931 whole entry, species assumed): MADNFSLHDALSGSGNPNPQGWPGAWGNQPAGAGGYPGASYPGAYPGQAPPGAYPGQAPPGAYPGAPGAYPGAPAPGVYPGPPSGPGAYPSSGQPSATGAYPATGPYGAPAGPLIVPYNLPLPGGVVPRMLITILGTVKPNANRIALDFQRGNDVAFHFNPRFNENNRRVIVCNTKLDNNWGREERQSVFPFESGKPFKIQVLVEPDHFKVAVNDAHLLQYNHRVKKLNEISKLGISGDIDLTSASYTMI

Structure (SMILES) | Kd [nM]
Cc1nc([C@@H]2OC(CO)[C@H](O)C(n3cc(-c4cc(F)c(F)c(F)c4)cn3)C2O)n(-c2cncc(Br)c2)n1 (stereo in doubt) [Example 19, 5-Bromo-3-{5-{3-deoxy-3-[4-(3,4,5-trifluorophenyl)-1H-1,2-pyrazol-1-yl]-β-D-galactopyranosyl}-3-methyl-1H-1,2,4-triazol-1-yl}pyridine] | 25
Cc1nc([C@@H]2OC(CO)[C@H](O)C(n3cc(-c4cc(F)c(F)c(F)c4)cn3)C2O)n(-c2cc(Br)ccc2C#N)n1 (stereo in doubt) [Example 26, 5-Bromo-2-cyano-1-{5-{3-deoxy-3-[4-(3,4,5-trifluorophenyl)-1H-1,2-pyrazol-1-yl]-β-D-galactopyranosyl}-3-methyl-1H-1,2,4-triazol-1-yl}benzene] | 15
Cc1nc([C@@H]2OC(CO)[C@H](O)C(n3cc(-c4cc(F)c(F)c(F)c4)cn3)C2O)n(-c2cc(Br)ccc2C(F)(F)F)n1 (stereo in doubt) [Example 24, 5-Bromo-1-{5-{3-deoxy-3-[4-(3,4,5-trifluorophenyl)-1H-1,2-pyrazol-1-yl]-β-D-galactopyranosyl}-3-methyl-1H-1,2,4-triazol-1-yl}-2-(trifluoromethyl)benzene] | 2
Cc1nc([C@@H]2OC(CO)[C@H](O)C(n3cc(-c4cc(F)c(F)c(F)c4)cn3)C2O)n(-c2cc(Cl)ccc2C#N)n1 (stereo in doubt) [Example 27, 5-Chloro-2-cyano-1-{5-{3-deoxy-3-[4-(3,4,5-trifluorophenyl)-1H-1,2-pyrazol-1-yl]-β-D-galactopyranosyl}-3-methyl-1H-1,2,4-triazol-1-yl}benzene] | 37

The remaining lines, values ahead:

Kd [nM] | Structure (SMILES)
9 | Cc1nc([C@@H]2OC(CO)[C@H](O)C(n3cc(-c4cc(F)c(F)c(F)c4)cn3)C2O)n(-c2ccc3ncsc3c2)n1 (stereo in doubt) [Example 34, 6-{5-{3-Deoxy-3-[4-(3,4,5-trifluorophenyl)-1H-1,2-pyrazol-1-yl]-β-D-galactopyranosyl}-3-methyl-1H-1,2,4-triazol-1-yl}benzothiazole]
28 | CCOC(=O)c1nn(C2C(O)[C@H](c3nc(C)nn3-c3cc(Cl)ccc3C(F)(F)F)OC(CO)[C@@H]2O)cc1-c1cc(F)c(Cl)c(F)c1 (stereo in doubt) [Example 29, 1-{5-{3-[4-(4-Chloro-3,5-difluorophenyl)-3-ethoxycarbonyl-1H-1,2-pyrazol-1-yl]-3-deoxy-β-D-galactopyranosyl}-3-methyl-1H-1,2,4-triazol-1-yl}-5-chloro-2-(trifluoromethyl)benzene]
36 | Cc1nc([C@@H]2OC(CO)[C@H](O)C(n3cc(-c4cc(F)c(F)c(F)c4)c(Cc4ccccc4)n3)C2O)n(-c2cc(Cl)ccc2C(F)(F)F)n1 (stereo in doubt) [Example 50, 1-{5-{3-[3-Benzyl-4-(3,4,5-trifluorophenyl)-1H-1,2-pyrazol-1-yl]-3-deoxy-β-D-galactopyranosyl}-3-methyl-1H-1,2,4-triazol-1-yl}-5-chloro-2-(trifluoromethyl)benzene]
23 | Cc1nc([C@@H]2OC(CO)[C@H](O)C(n3cc(-c4cc(F)c(Cl)c(F)c4)c(C(N)=O)n3)C2O)n(-c2cc(Cl)ccc2C(F)(F)F)n1 (stereo in doubt) [Example 32, 1-{5-{3-[3-Aminocarbonyl-4-(4-chloro-3,5-difluorophenyl)-1H-1,2-pyrazol-1-yl]-3-deoxy-β-D-galactopyranosyl}-3-methyl-1H-1,2,4-triazol-1-yl}-5-chloro-2-(trifluoromethyl)benzene]
15 | Cc1nc([C@@H]2OC(CO)[C@H](O)C(n3cc(-c4cc(F)c(Cl)c(F)c4)cn3)C2O)n(-c2cc(Cl)cnc2C(F)(F)F)n1 (stereo in doubt) [Example 28, 3-{5-{3-[4-(4-Chloro-3,5-difluorophenyl)-1H-1,2-pyrazol-1-yl]-3-deoxy-β-D-galactopyranosyl}-3-methyl-1H-1,2,4-triazol-1-yl}-5-chloro-2-(trifluoromethyl)pyridine]
